pEC50, pIC50: −log10 of the molar value. Read-outs that look alike come from different tables or passages of the source.

One experiment has as its target DGKα (Homo sapiens (Human), UniProt P23743). Kind of experiment: biochemical. It is filed as biochemical.
The next experiment concerns the target human DGKζ (Homo sapiens (Human), UniProt Q13574). Kind of experiment: biochemical. The note with it: liposome (LIPGLO) assay. It counts as biochemical.
Experiment [1] has as its system Human venous whole blood (IFN-γ). The experiment can be described thus: Human whole blood IFN-γ assay. It is filed as cell-based. The note with it: human whole blood, anti-CD3 plus anti-CD28, 24 hours, read-out: INFg Whole Blood Normalized Agonist EC50. The method, then: Assay 10: Human Whole Blood IFN-γ Assay
Human venous whole blood (22.5 μL per well), obtained from healthy donors, was pre-treated with compounds for one hour at 37° C. in a humidified 95% air/5% CO2 incubator. The blood was stimulated with 2.5 μL anti-human CD3 and anti-CD28 mAb at a final concentration of 1 μg/mL each for 24 hours at 37° C. IFN-γ in the supernatants was measured using AlphLISA kit (Cat #AL217).

Setting [2] is: liposome (LIPGLO) assay, read-out: DGKα LIPGLO IC50.
[3] abbreviates: Table A, liposome (LIPGLO) assay, read-out: DGKα.

Sequence of human DGKζ (Q13574 whole entry, looked up): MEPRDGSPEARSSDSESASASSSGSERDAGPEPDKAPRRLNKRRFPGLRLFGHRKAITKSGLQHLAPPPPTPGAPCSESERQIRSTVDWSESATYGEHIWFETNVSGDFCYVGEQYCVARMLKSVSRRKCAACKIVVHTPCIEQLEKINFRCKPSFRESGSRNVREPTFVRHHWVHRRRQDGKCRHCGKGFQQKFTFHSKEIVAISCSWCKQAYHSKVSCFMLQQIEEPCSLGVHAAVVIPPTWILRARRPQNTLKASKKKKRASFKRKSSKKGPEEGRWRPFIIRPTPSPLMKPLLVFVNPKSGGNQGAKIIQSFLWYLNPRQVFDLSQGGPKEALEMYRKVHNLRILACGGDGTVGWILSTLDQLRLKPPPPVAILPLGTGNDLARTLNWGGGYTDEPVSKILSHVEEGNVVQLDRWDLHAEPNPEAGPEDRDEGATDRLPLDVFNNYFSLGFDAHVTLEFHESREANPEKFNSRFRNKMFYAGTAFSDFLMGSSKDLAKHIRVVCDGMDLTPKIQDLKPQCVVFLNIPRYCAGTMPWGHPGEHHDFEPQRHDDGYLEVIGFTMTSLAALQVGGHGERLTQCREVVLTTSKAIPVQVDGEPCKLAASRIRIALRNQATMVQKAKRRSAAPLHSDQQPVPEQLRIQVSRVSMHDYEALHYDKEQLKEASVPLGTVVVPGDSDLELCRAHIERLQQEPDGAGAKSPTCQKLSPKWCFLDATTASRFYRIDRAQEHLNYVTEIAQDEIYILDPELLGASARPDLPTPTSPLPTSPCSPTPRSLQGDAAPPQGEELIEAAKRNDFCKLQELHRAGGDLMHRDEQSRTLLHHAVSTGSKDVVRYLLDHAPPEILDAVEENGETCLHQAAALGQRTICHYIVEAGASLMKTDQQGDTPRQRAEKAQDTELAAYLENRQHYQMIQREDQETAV
Sequence of DGKα (P23743 whole entry, looked up): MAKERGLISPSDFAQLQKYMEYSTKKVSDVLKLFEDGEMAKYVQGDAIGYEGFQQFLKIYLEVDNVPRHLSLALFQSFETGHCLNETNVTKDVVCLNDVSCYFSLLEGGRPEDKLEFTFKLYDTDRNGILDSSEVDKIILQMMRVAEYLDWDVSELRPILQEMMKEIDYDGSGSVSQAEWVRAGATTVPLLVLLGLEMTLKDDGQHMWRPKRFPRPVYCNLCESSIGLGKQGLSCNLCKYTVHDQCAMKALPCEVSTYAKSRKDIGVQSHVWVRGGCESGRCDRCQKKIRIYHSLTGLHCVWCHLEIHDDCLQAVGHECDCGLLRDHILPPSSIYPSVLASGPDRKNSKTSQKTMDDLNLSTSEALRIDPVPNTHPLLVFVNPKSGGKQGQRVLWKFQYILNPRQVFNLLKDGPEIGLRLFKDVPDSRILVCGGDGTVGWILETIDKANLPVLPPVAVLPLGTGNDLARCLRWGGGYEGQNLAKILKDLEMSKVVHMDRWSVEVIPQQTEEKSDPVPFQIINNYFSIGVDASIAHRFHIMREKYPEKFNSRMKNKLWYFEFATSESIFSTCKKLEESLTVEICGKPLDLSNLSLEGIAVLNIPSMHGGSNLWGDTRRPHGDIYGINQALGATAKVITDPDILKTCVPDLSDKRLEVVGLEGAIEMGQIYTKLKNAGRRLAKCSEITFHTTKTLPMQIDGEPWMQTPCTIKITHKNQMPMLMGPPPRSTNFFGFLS

In the case of `CC[C@@H]1CN(c2cc(=O)n(C)c3ccc(C#N)nc23)CC[C@H]1Oc1cccc(C(C)C)c1` (racemic) [Example 137, 8-((3R,4R)-3-ethyl-4-(3-isopropylphenoxy)piperidin-1-yl)-5-methyl-6-oxo-5,6-dihydro-1,5-naphthyridine-2-carbonitrile], the pIC50 at DGKα (setting [2]) is 7.44; at human DGKζ (read-out: DGKζ LIPGLO IC50), 6.04.

Regarding `CCC(C)(C)c1ccc(O[C@@H]2CCN(c3c(C#N)c(=O)n(C)c4ccc(C#N)nc34)C[C@H]2C)cc1` (racemic) [Example 229, (+/−) 5-methyl-8-(trans-3-methyl-4-(4-(tert-pentyl)phenoxy)piperidin-1-yl)-6-oxo-5,6-dihydro-1,5-naphthyridine-2,7-dicarbonitrile], the pIC50 is 6.55 at DGKα (setting [3]) and not above 3.60 at human DGKζ (Table A, read-out: DGKζ).

Usually pEC50 stands for the EC50 on a negative log10 scale, so that one unit is a factor of ten. Consider `CCC(C)(C)c1ccc(O[C@@H]2CCN(c3cc(=O)n(C)c4ccc(C#N)nc34)C[C@H]2C)cc1` (single isomer, unassigned) [Example 84], for which the pIC50 is 7.32 at DGKα (setting [2]) and 4.64 at human DGKζ (read-out: DGKζ LIPGLO IC50). Besides, the pEC50 in experiment [1] is 5.92.

With `C[C@@H]1CN(c2cc(=O)n(C)c3ccc(C#N)nc23)CC[C@H]1Oc1cccc(C2CC2)c1` (single isomer, unassigned) [Example 93], the pIC50 at DGKα (setting [2]) was 6.52; at human DGKζ (read-out: DGKζ LIPGLO IC50), 4.74. Also, the pEC50 in experiment [1] is 5.23.

Turning to `CC(C)c1ccc(O[C@@H]2CCN(c3cc(=O)n(C)c4ccc(C#N)nc34)C[C@H]2C)cc1` (single isomer, unassigned) [Example 95], the results for the pIC50 on DGKα (setting [2]) and on human DGKζ (read-out: DGKζ LIPGLO IC50) were 6.40 and 5.30, respectively. In addition, in experiment [1], the pEC50 is 6.00.

Turning to `CC(C)c1ccc(O[C@@H]2CCN(c3cc(=O)n(C)c4ccc(C#N)nc34)C[C@H]2C)cc1` (single isomer, unassigned) [Example 96], the pIC50 on DGKα (setting [2]) was 7.24; at human DGKζ (read-out: DGKζ LIPGLO IC50) it was 4.70. Also, in experiment [1], the pEC50 was 5.59.

With `C[C@@H]1CN(c2cc(=O)n(C)c3ccc(C#N)nc23)CC[C@H]1Oc1ccc(C2CCCC2)cc1` (single isomer, unassigned) [Example 101], the pIC50 is 6.37 on DGKα (setting [2]) and 5.17 at human DGKζ (read-out: DGKζ LIPGLO IC50). Moreover, the pEC50 in experiment [1] was 5.85.

Take `C[C@@H]1CN(c2cc(=O)n(C)c3ccc(C#N)nc23)CC[C@H]1Oc1ccc(C2CCCC2)cc1` (single isomer, unassigned) [Example 102]: the pIC50 at DGKα (setting [2]) was 7.17; at human DGKζ (read-out: DGKζ LIPGLO IC50), 4.08. Also, the pEC50 in experiment [1] is 5.48.

Turning to `Cc1cccc(O[C@@H]2CCN(c3cc(=O)n(C)c4ccc(C#N)nc34)C[C@H]2C)c1` (single isomer, unassigned) [Example 108], the pIC50 at DGKα (setting [2]) was 6.04; at human DGKζ (read-out: DGKζ LIPGLO IC50), 4.96. The pEC50 in experiment [1] (Homo sapiens, 24 h) is 5.52.

As for `Cc1cccc(O[C@@H]2CCN(c3cc(=O)n(C)c4ccc(C#N)nc34)C[C@H]2C)c1` (single isomer, unassigned) [Example 109], the pIC50 on DGKα (setting [2]) was 6.92; on human DGKζ (read-out: DGKζ LIPGLO IC50), 4.54. Besides, the pEC50 in experiment [1] is 5.38.

In the case of `C[C@@H]1CN(c2cc(=O)n(C)c3ccc(C#N)nc23)CC[C@H]1Oc1ccc(F)cc1C(F)(F)F` (single isomer, unassigned) [Example 117], the pIC50 was 5.70 at DGKα (setting [2]) and 4.70 at human DGKζ (read-out: DGKζ LIPGLO IC50). The negative-log EC50 (pEC50) in experiment [1] (Homo sapiens, 24 h) was 5.34.

Consider `C[C@@H]1CN(c2cc(=O)n(C)c3ccc(C#N)nc23)CC[C@H]1Oc1ccc(F)cc1C(F)(F)F` (single isomer, unassigned) [Example 118], for which the pIC50 is 6.60 at DGKα (setting [2]) and 4.28 on human DGKζ (read-out: DGKζ LIPGLO IC50). Moreover, the pEC50 in experiment [1] is 5.33.

Turning to `Cc1ccc(O[C@@H]2CCN(c3cc(=O)n(C)c4ccc(C#N)nc34)C[C@H]2C)cc1` (single isomer, unassigned) [Example 120], the pIC50 was 6.46 on DGKα (setting [2]) and 4.14 on human DGKζ (read-out: DGKζ LIPGLO IC50). Moreover, the pEC50 in experiment [1] (Homo sapiens, 24 h) is 5.33.

For the compound `Cc1ccc(O[C@@H]2CCN(c3cc(=O)n(C)c4ccc(C#N)nc34)C[C@H]2C)cc1` (single isomer, unassigned) [Example 121], the pIC50 was 5.74 at DGKα (setting [2]) and 5.00 on human DGKζ (read-out: DGKζ LIPGLO IC50). For the same compound, the pEC50 in experiment [1] is 5.17.

`CC[C@@H]1CN(c2cc(=O)n(C)c3ccc(C#N)nc23)CC[C@H]1Oc1cccc(C(F)(F)F)c1` (single isomer, unassigned) [Example 141]: the pIC50 at DGKα (setting [2]) was 7.17; on human DGKζ (read-out: DGKζ LIPGLO IC50), 6.59. In addition, the pEC50 in experiment [1] is 6.30.

Consider `CC[C@@H]1CN(c2cc(=O)n(C)c3ccc(C#N)nc23)CC[C@H]1Oc1cccc(C(F)(F)F)c1` (single isomer, unassigned) [Example 142], for which the pIC50 on DGKα (setting [2]) is 5.33; at human DGKζ (read-out: DGKζ LIPGLO IC50) it was 5.96. The pEC50 in experiment [1] is 5.52.

For `CC[C@@H]1CN(c2cc(=O)n(C)c3ccc(C#N)nc23)CC[C@H]1Oc1ccc(OC(C)(C)C)cc1` (single isomer, unassigned) [Example 159], the pIC50 at DGKα (setting [2]) was 6.89; on human DGKζ (read-out: DGKζ LIPGLO IC50) it was 5.64. Further, the pEC50 in experiment [1] (Homo sapiens, 24 h) is 5.38.

Take `CC[C@@H]1CN(c2cc(=O)n(C)c3ccc(C#N)nc23)CC[C@H]1Oc1ccc(OC(C)(C)C)cc1` (single isomer, unassigned) [Example 160]: the values for the pIC50 on DGKα (setting [2]) and at human DGKζ (read-out: DGKζ LIPGLO IC50) were 5.77 and 5.48, respectively. Further, the pEC50 in experiment [1] was 5.35.

For `CC[C@@H]1CN(c2cc(=O)n(C)c3ccc(C#N)nc23)CC[C@H]1Oc1cccc(OC(F)(F)F)c1` (single isomer, unassigned) [Example 162], the figures for the pIC50 on DGKα (setting [2]) and at human DGKζ (read-out: DGKζ LIPGLO IC50) were 5.77 and 5.96, respectively.

For `CC[C@@H]1CN(c2cc(=O)n(C)c3ccc(C#N)nc23)CC[C@H]1Oc1cccc(OC(F)(F)F)c1` (single isomer, unassigned) [Example 163], the pIC50 at DGKα (setting [2]) was 7.38; at human DGKζ (read-out: DGKζ LIPGLO IC50) it was 6.44.

`CCC(C)(C)c1ccc(O[C@@H]2CCN(c3c(C#N)c(=O)n(C)c4ccc(C#N)nc34)C[C@H]2C)cc1` (single isomer, unassigned) [Example 230, 5-methyl-8-(trans-3-methyl-4-(4-(tert-pentyl)phenoxy)piperidin-1-yl)-6-oxo-5,6-dihydro-1,5-naphthyridine-2,7-dicarbonitrile (rel)]: the pIC50 on DGKα (setting [3]) is 5.48; on human DGKζ (Table A, read-out: DGKζ), not above 3.60.

On to `COc1cc(F)ccc1OC1CCN(c2c(C#N)c(=O)n(C)c3ccc(Cl)nc23)CC1` [Example 36, 6-chloro-4-(4-(4-fluoro-2-methoxyphenoxy)piperidin-1-yl)-1-methyl-2-oxo-1,2-dihydro-1,5-naphthyridine-3-carbonitrile], for which the pIC50 is 5.80 on DGKα (setting [2]) and 4.49 at human DGKζ (read-out: DGKζ LIPGLO IC50).

As for `Cn1c(=O)cc(N2CCC(Oc3ccc(C4CCCCC4)cc3)CC2)c2nc(C#N)ccc21` [Example 63, 8-(4-(4-cyclohexylphenoxy)piperidin-1-yl)-5-methyl-6-oxo-5,6-dihydro-1,5-naphthyridine-2-carbonitrile], the pIC50 was 6.13 on DGKα (setting [2]) and 4.42 at human DGKζ (read-out: DGKζ LIPGLO IC50).

`Cn1c(=O)cc(N2CCC(Oc3ccc(C(F)(F)F)cn3)CC2)c2nc(C#N)ccc21` [Example 77, 5-methyl-6-oxo-8-(4-((5-(trifluoromethyl)pyridin-2-yl)oxy)piperidin-1-yl)-5,6-dihydro-1,5-naphthyridine-2-carbonitrile]: the pIC50 at DGKα (setting [2]) and on human DGKζ (read-out: DGKζ LIPGLO IC50) was 5.52 in each case.

For `C[C@@H]1CN(c2cc(=O)n(C)c3ccc(C#N)nc23)CC[C@H]1Oc1c(F)cc(F)cc1F` [Example 131, 5-methyl-8-((3R,4R)-3-methyl-4-(2,4,6-trifluorophenoxy)piperidin-1-yl)-6-oxo-5,6-dihydro-1,5-naphthyridine-2-carbonitrile], the pIC50 on DGKα (setting [2]) is 5.51; at human DGKζ (read-out: DGKζ LIPGLO IC50), not above 3.60.

For the compound `C[C@@H]1CN(c2cc(=O)n(C)c3ccc(C#N)nc23)CC[C@H]1Oc1cccc2c1OCCCO2` [Example 132, 8-((3R,4R)-4-((3,4-dihydro-2H-benzo[b][1,4]dioxepin-6-yl)oxy)-3-methylpiperidin-1-yl)-5-methyl-6-oxo-5,6-dihydro-1,5-naphthyridine-2-carbonitrile], the pIC50 on DGKα (setting [2]) is 7.96; at human DGKζ (read-out: DGKζ LIPGLO IC50), 5.37.

Regarding `C[C@@H]1CN(c2cc(=O)n(C)c3ccc(C#N)nc23)CC[C@@H]1Oc1ccc(OC(C)(C)C)cc1` [Example 172, 8-((3R,4S)-4-(4-(tert-butoxy)phenoxy)-3-methylpiperidin-1-yl)-5-methyl-6-oxo-5,6-dihydro-1,5-naphthyridine-2-carbonitrile], at DGKα (read-out: DGKα LIPGLO IC50), the pIC50 was 6.21. The pEC50 in experiment [1] (Homo sapiens, 24 h) is 5.82.

`C[C@@H]1CN(c2cc(=O)n(C)c3ccc(C#N)nc23)CC[C@@H]1Oc1cccc(C2CC2)c1` [Example 180, 8-((3R,4S)-4-(3-cyclopropylphenoxy)-3-methylpiperidin-1-yl)-5-methyl-6-oxo-5,6-dihydro-1,5-naphthyridine-2-carbonitrile]: the pIC50 was 7.35 on DGKα (setting [2]) and 6.00 at human DGKζ (read-out: DGKζ LIPGLO IC50).

Consider `C[C@@H]1CN(c2cc(=O)n(C)c3ccc(C#N)nc23)CC[C@@H]1Oc1cccc(C2CC2)c1` [Example 181, 8-((3R,4S)-4-(3-cyclopropylphenoxy)-3-methylpiperidin-1-yl)-5-methyl-6-oxo-5,6-dihydro-1,5-naphthyridine-2-carbonitrile], for which the figures for the pIC50 at DGKα (setting [2]) and at human DGKζ (read-out: DGKζ LIPGLO IC50) were 7.21 and 5.85, respectively.

On to `CCc1cnc(O[C@H]2CCN(c3cc(=O)n(C)c4ccc(C#N)nc34)C[C@H]2C)nc1` [Example 221, 8-((3R,4S)-4-((5-ethylpyrimidin-2-yl)oxy)-3-methylpiperidin-1-yl)-5-methyl-6-oxo-5,6-dihydro-1,5-naphthyridine-2-carbonitrile], for which the pIC50 is 6.46 at DGKα (setting [3]) and 5.74 on human DGKζ (Table A, read-out: DGKζ).

The values above are taken from US11964973B2 (priority 2019, dated 2024).
